What is called melting point is the temperature, or range, at which the solid turns liquid. As for `COCC(=O)N[C@H]1CC[C@H](CCN2CCN(c3cc(C#N)cc(C(F)(F)F)c3)CC2)CC1` [Example 139, N-(4-{2-[4-(3-Cyano-5-trifluoromethylphenyl)piperazin-1-yl]ethyl}cyclohexyl)-2-methoxyacetamide], the melting point was 140 °C.

`CCOCC(=O)N[C@H]1CC[C@H](CCN2CCN(c3cc(C#N)cc(C(F)(F)F)c3)CC2)CC1` [Example 140, N-(4-{2-[4-(3-Cyano-5-trifluoromethylphenyl)piperazin-1-yl]ethyl}cyclohexyl)-2-ethoxyacetamide] displayed a melting point of 133 °C.

With `N#CCC(=O)N[C@H]1CC[C@H](CCN2CCN(c3cccc(Cl)c3Cl)CC2)CC1` [Example 143, 2-Cyano-N-(4-{2-[4-(2,3-dichlorophenyl)piperazin-1-yl]ethyl}cyclohexyl)acetamide], the melting point came out at 188 °C.

As for `CC(=O)NCC(=O)N[C@H]1CC[C@H](CCN2CCN(c3cccc(F)c3F)CC2)CC1` [Example 145, 2-Acetylamino-N-(4-{2-[4-(2,3-difluorophenyl)piperazin-1-yl]ethyl}cyclohexyl)acetamide], the melting point amounted to 218 °C.

`Cc1cc(C)cc(N2CCN(CC[C@H]3CC[C@H](NC(=O)CC#N)CC3)CC2)c1` [Example 148, 2-Cyano-N-(4-{2-[4-(3,5-dimethylphenyl)piperazin-1-yl]ethyl}cyclohexyl)acetamide] came in with a melting point of 192 °C.

Regarding `CCc1cccc(N2CCN(CC[C@H]3CC[C@H](NC(=O)CC#N)CC3)CC2)c1` [Example 149, 2-Cyano-N-(4-{2-[4-(3-ethylphenyl)piperazin-1-yl]ethyl}cyclohexyl)acetamide], the melting point came out at 142 °C.

With `CN(C)c1cccc(N2CCN(CC[C@H]3CC[C@H](NC(=O)CC#N)CC3)CC2)c1` [Example 150, 2-Cyano-N-(4-{2-[4-(3-dimethylaminophenyl)piperazin-1-yl]ethyl}cyclohexyl)acetamide], the melting point amounted to 177 °C.

Take `N#CCC(=O)N[C@H]1CC[C@H](CCN2CCN(c3cc(Cl)cc(Cl)c3)CC2)CC1` [Example 151, 2-Cyano-N-(4-{2-[4-(3,5-dichlorophenyl)piperazin-1-yl]ethyl}cyclohexyl)acetamide]: the melting point was determined as 200 °C.

With `Cc1ccc(C)c(N2CCN(CC[C@H]3CC[C@H](NC(=O)CC#N)CC3)CC2)c1` [Example 152, 2-Cyano-N-(4-{2-[4-(2,5-dimethylphenyl)piperazin-1-yl]ethyl}cyclohexyl)acetamide], the melting point worked out at 184 °C.

Turning to `CC(=O)N1CCC(C(=O)N[C@H]2CC[C@H](CCN3CCN(c4cccc(C(F)(F)F)c4)CC3)CC2)CC1` [Example 153, 1-Acetylpiperidine-4-carboxylic acid (4-{2-[4-(3-trifluoro-methylphenyl)piperazin-1-yl]ethyl}cyclohexyl)amide], the melting point was 173 °C.

`Cc1ccc(Cl)cc1N1CCN(CC[C@H]2CC[C@H](NC(=O)CC#N)CC2)CC1` [Example 155, N-(4-{2-[4-(5-Chloro-2-methylphenyl)piperazin-1-yl]ethyl}cyclohexyl)-2-cyanoacetamide] registered a melting point of 171 to 172 °C.

The compound `N#CCC(=O)N[C@H]1CC[C@H](CCN2CCN(c3cccc(Cl)c3)CC2)CC1` [Example 156, N-(4-{2-[4-(3-Chlorophenyl)-piperazin-1-yl]ethyl}cyclohexyl)-2-cyanoacetamide] yielded a melting point of 186 to 187 °C.

`N#CCC(=O)N[C@H]1CC[C@H](CCN2CCN(c3cccc(OC(F)(F)F)c3)CC2)CC1` [Example 157, 2-Cyano-N-(4-{2-[4-(3-trifluoromethoxyphenyl)piperazin-1-yl]ethyl}cyclohexyl)acetamide] yielded a melting point of 173 to 174 °C.

As to `N#CCC(=O)N[C@H]1CC[C@H](CCN2CCN(c3cccc(C(F)(F)F)c3F)CC2)CC1` [Example 158, 2-Cyano-N-(4-{2-[4-(2-fluoro-3-trifluoromethylphenyl)piperazin-1-yl]ethyl}cyclohexyl)acetamide], the melting point was 194 °C.

`N#CCC(=O)N[C@H]1CC[C@H](CCN2CCN(c3cc(F)cc(F)c3)CC2)CC1` [Example 159, 2-Cyano-N-(4-{2-[4-(3,5-difluorophenyl)piperazin-1-yl]ethyl}cyclohexyl)acetamide trans/cis 95/5] registered a melting point of 196 °C.

Regarding `COc1cc(N2CCN(CC[C@H]3CC[C@H](NC(=O)CC#N)CC3)CC2)cc(C(F)(F)F)c1` [Example 160, 2-Cyano-N-(4-{2-[4-(3-methoxy-5-trifluoromethylphenyl)piperazin-1-yl]ethyl}cyclohexyl)acetamide], the melting point was in the range of 183 to 184 °C.

As for `N#CCCCC(=O)N[C@H]1CC[C@H](CCN2CCN(c3cccc(C(F)(F)F)c3)CC2)CC1` [Example 161, 4-Cyano-N-(4-{2-[4-(3-trifluoromethylphenyl)piperazin-1-yl]ethyl}cyclohexyl)butanamide], the melting point amounted to 149 °C.

Turning to `N#CCC(=O)N[C@H]1CC[C@H](CCN2CCN(c3ccc(F)cc3F)CC2)CC1` [Example 162, 2-Cyano-N-(4-{2-[4-(2,4-difluorophenyl)piperazin-1-yl]ethyl}cyclohexyl)acetamide], the melting point is 188 °C.

For `COc1ccc(C(F)(F)F)cc1N1CCN(CC[C@H]2CC[C@H](NC(=O)CC#N)CC2)CC1` [Example 165, 2-Cyano-N-(4-{2-[4-(2-methoxy-5-trifluoromethylphenyl)piperazin-1-yl]ethyl}cyclohexyl)acetamide], the melting point amounted to 183 °C.

`Cc1cccc(N2CCN(CC[C@H]3CC[C@H](NC(=O)CC#N)CC3)CC2)c1` [Example 166, 2-Cyano-N-{4-[2-(4-m-tolylpiperazin-1-yl)ethyl]cyclohexyl}acetamide] yielded a melting point of 175 °C.

The compound `CCN(CC)CCC(=O)N[C@H]1CC[C@H](CCN2CCN(c3cccc(C(F)(F)F)c3)CC2)CC1` [Example 167, 3-Diethylamino-N-(4-{2-[4-(3-trifluoromethylphenyl)piperazin-1-yl]ethyl}cyclohexyl)propanamide trans/cis 85/15] came in with a melting point of 77 °C.

`CC(C)(C)c1cccc(N2CCN(CC[C@H]3CC[C@H](NC(=O)CC#N)CC3)CC2)c1` [Example 169, N-(4-{2-[4-(3-tert-Butylphenyl)piperazin-1-yl]ethyl}cyclohexyl)-2-cyanoacetamide]: the melting point turned out to be 150 °C.

`CCOc1cccc(N2CCN(CC[C@H]3CC[C@H](NC(=O)CC#N)CC3)CC2)c1` [Example 170, 2-Cyano-N-(4-{2-[4-(3-ethoxyphenyl)piperazin-1-yl]ethyl}cyclohexyl)acetamide] had a melting point of 157 to 159 °C.

On to `N#CCC(=O)N[C@H]1CC[C@H](CCN2CCN(c3cc(Cl)ccc3F)CC2)CC1` [Example 171, N-(4-{2-[4-(5-Chloro-2-fluorophenyl)piperazin-1-yl]ethyl}cyclohexyl)-2-cyanoacetamide], for which the melting point is 200 °C.

Take `N#CCCCC(=O)N[C@H]1CC[C@H](CCN2CCN(c3cccc(C(F)(F)F)c3F)CC2)CC1` [Example 172, 4-Cyano-N-(4-{2-[4-(2-fluoro-3-trifluoromethylphenyl)piperazin-1-yl]ethyl}cyclohexyl)butanamide]: the melting point is 158 to 162 °C.
